“Also recorded” adds a separate entry of the source.
How the values were obtained:
[1] = tested on: autistic children; conditions: eight week trial, 25 autistic children, unpublished data, not placebo-controlled; cited from earlier work
[2] = target: α3-GABAA receptors (Homo sapiens, UniProt P18507+P34903); conditions: recombinant receptors; cited from earlier work
[3] = target: T1, α5-GABAA receptors (Homo sapiens, UniProt P31644); conditions: recombinant receptors; cited from earlier work
T1 sequence (P31644 32-462): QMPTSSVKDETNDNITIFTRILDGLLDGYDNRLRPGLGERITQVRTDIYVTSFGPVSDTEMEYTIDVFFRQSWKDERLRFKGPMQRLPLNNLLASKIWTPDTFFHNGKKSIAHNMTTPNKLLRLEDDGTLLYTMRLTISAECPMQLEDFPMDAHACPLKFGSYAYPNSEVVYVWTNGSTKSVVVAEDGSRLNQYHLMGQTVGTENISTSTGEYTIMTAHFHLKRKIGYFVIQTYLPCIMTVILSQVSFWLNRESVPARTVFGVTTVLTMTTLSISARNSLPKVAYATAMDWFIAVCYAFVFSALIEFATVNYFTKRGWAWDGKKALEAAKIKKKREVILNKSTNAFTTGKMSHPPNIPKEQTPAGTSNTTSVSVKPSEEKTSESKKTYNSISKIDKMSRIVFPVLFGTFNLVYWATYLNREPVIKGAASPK

[4] = target: α1-GABAA receptors (Homo sapiens, UniProt P14867+P18507); conditions: recombinant receptors; cited from earlier work
α1-GABAA receptors, sequence (P18507 40-475, one chain of several): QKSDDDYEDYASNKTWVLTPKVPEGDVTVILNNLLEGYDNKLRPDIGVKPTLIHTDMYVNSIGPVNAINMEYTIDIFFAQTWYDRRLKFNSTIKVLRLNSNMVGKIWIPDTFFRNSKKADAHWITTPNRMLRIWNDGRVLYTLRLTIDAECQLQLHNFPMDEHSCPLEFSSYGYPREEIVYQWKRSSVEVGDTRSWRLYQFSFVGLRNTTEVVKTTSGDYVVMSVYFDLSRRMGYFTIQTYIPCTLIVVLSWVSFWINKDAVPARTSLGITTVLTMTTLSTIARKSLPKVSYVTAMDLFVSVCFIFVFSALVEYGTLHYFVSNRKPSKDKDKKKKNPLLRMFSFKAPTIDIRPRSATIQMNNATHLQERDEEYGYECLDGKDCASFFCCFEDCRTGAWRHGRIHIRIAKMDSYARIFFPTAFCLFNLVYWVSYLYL

[5] = target: α2-GABAA receptors (Homo sapiens, UniProt P18507+P47869); conditions: recombinant receptors; cited from earlier work
α2-GABAA receptors, sequence (P47869 29-451, one chain of several): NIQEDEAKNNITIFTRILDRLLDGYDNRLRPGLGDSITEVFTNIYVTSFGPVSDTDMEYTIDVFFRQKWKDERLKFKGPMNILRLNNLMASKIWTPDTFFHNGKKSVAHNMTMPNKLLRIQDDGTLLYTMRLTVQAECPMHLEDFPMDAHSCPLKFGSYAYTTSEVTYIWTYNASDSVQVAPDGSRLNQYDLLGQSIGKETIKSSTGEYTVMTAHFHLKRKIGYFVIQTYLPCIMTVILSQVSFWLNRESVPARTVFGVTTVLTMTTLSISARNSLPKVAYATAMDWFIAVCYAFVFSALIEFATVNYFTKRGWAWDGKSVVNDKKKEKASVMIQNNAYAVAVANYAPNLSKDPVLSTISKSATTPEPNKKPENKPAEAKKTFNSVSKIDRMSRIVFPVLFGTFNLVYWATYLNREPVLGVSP
α2-GABAA receptors, sequence (P18507 40-475, one chain of several): as the sequence (P18507 40-475, one chain of several) above

[6] = target: T2, α1β3 GABAA receptors (Homo sapiens, UniProt P14867); conditions: cited from earlier work
T2 sequence (P14867 28-456): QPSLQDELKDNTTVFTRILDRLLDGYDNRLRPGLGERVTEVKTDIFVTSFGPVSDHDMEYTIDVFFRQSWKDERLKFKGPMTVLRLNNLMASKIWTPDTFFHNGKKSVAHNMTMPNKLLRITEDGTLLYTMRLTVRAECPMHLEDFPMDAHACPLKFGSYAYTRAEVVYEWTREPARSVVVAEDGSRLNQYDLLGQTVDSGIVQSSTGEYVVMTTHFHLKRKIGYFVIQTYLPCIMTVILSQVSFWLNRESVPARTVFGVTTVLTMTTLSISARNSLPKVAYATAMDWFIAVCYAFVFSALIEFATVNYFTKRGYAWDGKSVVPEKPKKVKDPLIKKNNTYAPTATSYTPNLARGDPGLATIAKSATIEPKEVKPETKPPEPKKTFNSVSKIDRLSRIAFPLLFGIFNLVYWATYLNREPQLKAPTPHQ
T2 sequence (P28472 26-473 partner): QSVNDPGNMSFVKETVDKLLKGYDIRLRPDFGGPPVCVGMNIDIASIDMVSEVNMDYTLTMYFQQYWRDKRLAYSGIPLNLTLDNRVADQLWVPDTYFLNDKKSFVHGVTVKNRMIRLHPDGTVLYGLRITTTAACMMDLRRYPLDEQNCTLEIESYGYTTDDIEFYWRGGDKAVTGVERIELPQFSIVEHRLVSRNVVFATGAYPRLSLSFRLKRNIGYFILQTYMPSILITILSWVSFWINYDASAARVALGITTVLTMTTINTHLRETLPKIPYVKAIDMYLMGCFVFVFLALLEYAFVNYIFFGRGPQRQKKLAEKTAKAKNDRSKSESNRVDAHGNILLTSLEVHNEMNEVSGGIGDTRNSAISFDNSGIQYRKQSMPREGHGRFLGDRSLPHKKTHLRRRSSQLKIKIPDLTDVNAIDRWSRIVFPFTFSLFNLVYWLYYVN

[7] = tested on: subject with Autism Spectrum Disorder; experiment: Oral zolpidem dosing regimen in a subject with ASD; assay type: in vivo, human
Text: Thus, classic BZs and zolpidem are likely to have different requirements for high-affinity binding to GABAA receptors (Sancar et al. 2007). […] Studies have shown that the sedative-hypnotic and anticonvulsant activities of zolpidem are due to its action on α1-GABAA receptors and not on α2- or α3-GABAA receptors (Crestani F et al., 2000).
Especially, the relief of the so-called “psychic pain” or “phantom pain” which was by far the most debilitating symptom of ASD with respect to the subject, was profound after the first dose.

α3-GABAA receptors, sequence (P34903 29-492, one chain of several): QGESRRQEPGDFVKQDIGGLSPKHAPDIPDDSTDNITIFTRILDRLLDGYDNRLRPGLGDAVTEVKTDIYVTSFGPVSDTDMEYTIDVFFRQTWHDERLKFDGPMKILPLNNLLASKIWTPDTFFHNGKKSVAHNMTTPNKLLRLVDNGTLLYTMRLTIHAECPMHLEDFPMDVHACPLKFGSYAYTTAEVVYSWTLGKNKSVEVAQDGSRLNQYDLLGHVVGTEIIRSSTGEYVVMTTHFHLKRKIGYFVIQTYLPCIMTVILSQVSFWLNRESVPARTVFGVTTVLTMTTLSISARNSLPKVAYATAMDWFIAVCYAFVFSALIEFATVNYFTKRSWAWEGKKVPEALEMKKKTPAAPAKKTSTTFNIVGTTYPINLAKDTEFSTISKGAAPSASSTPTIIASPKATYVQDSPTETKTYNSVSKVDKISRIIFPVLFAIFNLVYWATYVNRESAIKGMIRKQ
α3-GABAA receptors, sequence (P18507 40-475, one chain of several): as the sequence (P18507 40-475, one chain of several) above

| SMILES | measures of irritability and communications [1] | affinity to α3-GABAA receptors [2] | binding to α5-GABAA receptors [3] | affinity to α1-GABAA receptors [4] | affinity to α2-GABAA receptors [5] | modulation of α1β3 GABAA receptors [6] | relief of the so-called psychic pain or phantom pain ([7]; after the first dose, one subject) | attenuation of at least one indicium of an ASD ([7]; oral, at least 30 mg every 3.5 hours around the clock, at least one subject) | duration of symptom-free state while on zolpidem ([7]; oral, at least 30 mg every 3.5 hours around the clock, one subject) |
| --- | --- | --- | --- | --- | --- | --- | --- | --- | --- |
| NC[C@H](CC(=O)O)c1ccc(Cl)cc1 [Arbaclofen] | significant improvements |  |  |  |  |  |  |  |  |
| Cc1ccc(-c2nc3ccc(C)cn3c2CC(=O)N(C)C)cc1 [zolpidem] |  | intermediate affinity | fails to bind | high affinity | intermediate affinity | potent stoichiometry-selective modulator | profound | almost complete attenuation; also recorded: immediate and almost complete | symptom-free and leading a normal life for at least five years |

— US10449181B2, “Treatment of autism and autism spectrum disorders (ASD)” (priority 2016, dated 2019)
